This passage reports melting point results from patent publication US6441180B1, “Tetrazolyl-phenyl actamide glucokinase activators” (Hoffmann-La Roche Inc., priority 2000, dated 2002).

On to `CNC(=O)NC(=O)C(CC1CCCC1)c1ccc(-n2nnnc2C)c(Cl)c1` (stereo not drawn) [Example 11, 1-{2-[3-Chloro-4-(5-methyl-tetrazol-1-yl)-phenyl]-3-cyclopentyl-propionyl}-3-methyl-urea], for which the melting point fell in the range of 185 to 186 °C.

Regarding `Cc1nnnn1-c1ccc(C(CC2CCCC2)C(=O)Nc2ccc(Br)cn2)cc1F` (stereo not drawn) [Example 2, N-(5-Bromo-pyridin-2-yl)-3-cyclopentyl-2-[3-fluoro-4-(5-methyl-tetrazol-1-yl)-phenyl]-propionamide], the melting point lay within 73 to 78 °C.

For `Cc1nnnn1-c1ccc(/C(=C\C2CCCC2)C(=O)Nc2nccs2)cc1F` [Example 12, (E)-3-Cyclopentyl-2-[3-fluoro-4-(5-methyl-tetrazol-1-yl)-phenyl]-N-thiazol-2-yl-acrlamide], the melting point lay in the range of 158 to 162 °C.

On to `CNC(=O)NC(=O)/C(=C/C1CCCC1)c1ccc(-n2nnnc2C)c(F)c1` [Example 22, (E)-1-{3-Cyclopentyl-2-[3-fluoro-4-(5-methyl-tetrazol-1-yl)-phenyl]-acryloyl}-3-methyl-urea], for which the melting point is 186 to 192 °C.

As for `Cc1nnnn1-c1cc(C(CC2CCCC2)C(=O)Nc2nccs2)ccc1S(C)(=O)=O` (stereo not drawn) [Example 9, 3-Cyclopentyl-2-[4-methanesulfonyl-3-(5-methyl-tetrazol-1-yl)-phenyl]-N-thiazol-2-yl-propionamide], the melting point lay within 148 to 154 °C.

`Cc1nnnn1-c1ccc(C(CC2CCCC2)C(=O)Nc2nccs2)cc1Cl` (stereo not drawn) [Example 3, 2-[3-Chloro-4-(5-methyl-tetrazol-1-yl)-phenyl]-3-cyclopentyl-N-thiazol-2-yl-propionamide] gave a melting point of 190 to 193 °C.

Broadly, the melting point is the temperature of the solid-liquid transition.
